Assay results published in patent publication US20180045715A1, “STRUCTURE AND FUNCTION OF THE SALICYCLIC ACID BINDING SITES ON HUMAN HMGB1 AND METHODS OF USE THEREOF FOR THE RATIONAL DESIGN OF BOTH SALICYCLIC ACID DERIVATIVES AND OTHER AGENTS THAT ALTER ANIMAL AND PLANT HMGBS ACTIVITIES” (Boyce Thompson Institute for Plant Research, Inc., priority 2015, published 2018).
“Also recorded” adds a separate entry of the source.

Legend:
[1] = biological target: T1, HMGB1^SS (Homo sapiens, UniProt P09429); experiment: HMGB1^SS-induced cytokine and COX-2 gene expression in human macrophages (qPCR); format: cell-based; settings: 3 h, 100 μM SA or 1 μM ac3AESA
T1 construct: (i) full length: residues 2-215; 6x His (cleaved yes); made in house; host or cells: Escherichia coli BL21
T1 sequence (P09429 2-215): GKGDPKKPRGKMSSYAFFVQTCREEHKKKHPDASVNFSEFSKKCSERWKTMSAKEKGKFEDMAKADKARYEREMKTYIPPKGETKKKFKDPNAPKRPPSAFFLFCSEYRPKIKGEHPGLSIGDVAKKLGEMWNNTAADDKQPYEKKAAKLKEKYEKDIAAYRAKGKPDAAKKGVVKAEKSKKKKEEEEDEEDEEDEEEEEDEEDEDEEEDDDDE
Experimental: (§1) Human HeLa cells were grown in T75 flasks in DMEM medium supplemented with penicillin (10,000 IU/mL) streptomycin ([…]), and 10% fetal calf serum. Ptgs2−/− MEFs were derived from Ptgs2−/− E16 mouse embryos, obtained from the mating of Ptgs2+/− mice purchased from Taconic Biosciences. PBMCs were isolated from buffy coats of donor blood (Hospital of Magenta, Milan, Italy) by Ficoll gradient centrifugation (Lymphoprep; AXIS-SHIELD. CD14+ monocytes were isolated by positive immunoselection (CD14 Microbeads; Miltenyi Biotec) according to the manufacturer's instructions, and differentiated into macrophages using X-Vivo medium supplemented with 1% heat inactivated human serum, GM-CSF, and M-CSF.
(§2) Macrophages were exposed to 3 μg/ml HMGB1^SS or 50 ng/ml LPS. Total RNAs were isolated using the Illustra RNAspin Mini kit (GE Healthcare), and complementary DNA (cDNA) was obtained by retro-transcription with oligo(dT) primers (Invitrogen, Carlsbad, Calif., USA) and SuperScript II Reverse Transcriptase (Invitrogen) following the manufacturers' instructions. Quantitative real-time PCR was performed using a LightCycler480 (Roche Molecular Diagnostics), in duplicates, using SYBR Green I master mix and the oligonucleotides listed in Table of primers below. The ΔCt method was used for quantification, and the β-actin gene was used for normalization.

[2] = system: LPS-induced expression of COX-2, IL-6 and TNFα; experiment: LPS-induced cytokine and COX-2 gene expression in human macrophages (qPCR); format: cell-based; settings: 10 ng/ml LPS, 100 μM SA or 1 μM ac3AESA
Experimental: as §1
as §2, with “Total” for “Macrophages were exposed to 3 μg/ml HMGB1^SS or 50 ng/ml LPS. Total”

[3] = system: Pep1; experiment: Callose staining: Pep1-induced callose deposition in Arabidopsis leaves; format: in vivo, Arabidopsis thaliana; settings: 100 nM Pep1, 15 h
Experimental: (§3) Arabidopsis leaves were collected 15 h after infiltration with 100 nM AtHMGB3 or 100 nM Pep1, and then immediately immersed in alcoholic lactophenol (phenol:glycerol:lactic acid:water:ethanol=1:1:1:1:8) to destain the chlorophyll. To remove the background fluorescence, destained leaves were treated with toluidine blue O solution (0.05% toluidine blue O, 0.1 M sodium acetate, pH 4.4) for 30 min, and then rinsed twice with 150 mM K2HPO4 (pH 9.5). Callose was stained with aniline blue solution (0.02% aniline blue, 150 mM K2HPO4, pH 9.5) for 30 min in the absence of light. The aniline blue-stained leaves were mounted with 25% glycerol and analyzed using a Leica DM5500 epifluorescence microscope. The number of callose loci was quantified using an ImageJ (NIH).

[4] = biological target: T2, AtHMGB3 (Arabidopsis thaliana, UniProt P93047); settings: co-infiltration of 1-10 μM SA, 1 μM AtHMGB3
T2 sequence (P93047 1-141): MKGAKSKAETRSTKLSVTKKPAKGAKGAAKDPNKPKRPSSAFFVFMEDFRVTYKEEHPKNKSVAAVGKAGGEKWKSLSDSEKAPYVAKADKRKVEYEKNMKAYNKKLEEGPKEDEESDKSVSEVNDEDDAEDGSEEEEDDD
Experimental: To detect the phosphorylation of Arabidopsis MAPKs (MPK3/4/6), 3 to 4 week-old soil grown Arabidopsis leaves were infiltrated with 1 μM AtHMGB3 or 1 μM Pep1 peptide ([…]; synthesized by GenScript USA Inc.). Two leaf disks were cut from the leaf center of two different leaves using a cork borer (diameter=0.7 cm) and immediately frozen and ground to fine powder in liquid nitrogen. […] The protein concentration of supernatant was measured using the Bradford reagent (Bio-Rad). Forty μg of proteins per sample was separated on the 8% SDS-PAGE and transferred to a PVDF membrane for immunoblotting using the anti-phospho-p44/42 MAPK antibody (Cell Signaling Technology). The large subunit of Rubisco was visualized by Coomassie Brilliant Blue (CBB) staining of the PVDF membrane in order to assess consistency of loading.

[5] = biological target: T3, R50A/K54A mutant AtHMGB3 (Arabidopsis thaliana, UniProt P93047, K54A/R50A); experiment: Callose deposition with mutant R50A/K54A AtHMGB3; settings: in vivo
T3 construct: providing a full length Arabidopsis thaliana HMGB1 or HMGB3 (AtHMGB1 or AtHMGB3) protein; made in house
Experimental: as §3
Thus, these residues (R50 and K54) were mutated to Ala, and the resulting mutant AtHMGB3 tested for its ability to activate MPK3/6 and induce callose deposition in the absence or presence of SA. The R50A/K54A mutant AtHMGB3 retained its ability to activate MPK3/6 and induce callose deposition, but inhibition of these activities by SA was lost (FIG. 7H,I and FIG. 8).

[6] = system: fMLP-induced migration of NIH/3T3 fibroblast cells; experiment: Chemotaxis assay: fMLP-induced fibroblast migration (specificity control); format: cell-based, mouse; settings: 0.1 nM fMLP
Experimental: Cell migration was assayed using Boyden chambers (Venereau et al., 2012). The downside of PVP-free polycarbonate filters (8 μm pores; Millipore) was coated with 50 μg/ml fibronectin (Sigma). Serum-free DMEM (negative control), DMEM containing 0.1 nM fMLP (positive control; Sigma), or DMEM containing 1 nM HMGB1^RE or HMGB1^SS were placed in the lower chamber, together with different concentrations of SA (Sigma). The mouse 3T3 fibroblast cells were cultured in DMEM media supplemented with 10% CS until 90% confluence, washed twice with PBS to eliminate any floating cells, and harvested with trypsin. 50,000 cells in 200 μL were added to the upper chamber, and cells were left to migrate for 3 h at 37° C. Non-migrating cells were removed with a cotton swab, and migrated cells were fixed with ethanol and stained with Giemsa.
HMGB1^RE acts as a chemo-attractant that mediates migration of several cell types, including monocytes, fibroblasts, mesoangioblasts, smooth muscle cells, and colon cancer cells (Venereau et al., 2012). To determine whether SA alters HMGB 1's chemo-attractant activity, a chemotaxis assay was performed with mouse 3T3 fibroblasts.

T3 sequence (P93047 whole entry R50A/K54A): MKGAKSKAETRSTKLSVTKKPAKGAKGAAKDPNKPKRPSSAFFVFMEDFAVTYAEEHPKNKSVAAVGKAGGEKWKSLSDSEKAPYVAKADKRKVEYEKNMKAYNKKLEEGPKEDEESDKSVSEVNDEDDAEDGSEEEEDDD

O=C(O)c1ccccc1O [SA, salicylic acid]
suppression of cytokine (IL-6, TNFα) and COX-2 expression induced by HMGB1^SS [1]: partially or completely suppressed; also recorded: partially suppressed | effect on LPS-induced expression of cytokine and COX-2 genes [2]: did not suppress | effect on Pep1-induced callose deposition [3]: unaffected | effect on MPK3/6 activation by AtHMGB3 [4]: blocked | inhibition by SA of callose deposition induced by R50A/K54A AtHMGB3 [5]: lost | effect on fibroblast migration induced by fMLP [6]: did not affect
